This passage reports TGI results from PubChem BioAssay (NCI).

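Cells were grown in 96-well plates and exposed to each compound for 48 hours at five concentrations; endpoints were interpolated linearly between bracketing concentrations, or set to the highest concentration if not reached. Definition used: TGI = concentration required for complete inhibition of growth.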

Among the test systems are HOP-92 NSCLC; EKVX NSCLC; SF-268 CNS; LOX IMVI melanoma; SK-OV-3 ovarian; RPMI-8226 leukemia; SK-MEL-2 melanoma; HCT-15 colon; UO-31 renal; SNB-75 CNS; KM12 colon; HT29 colon; SK-MEL-5 melanoma; SW-620 colon; MDA-MB-435; NCI-H226 lung; TK-10 renal; NCI/ADR-RES ovarian; ACHN renal; OVCAR-8 ovarian.
What all share (test): growth of human tumour cells (NCI), 48 h

On to `COc1ccc(/C=C2\N=C3Sc4c(nc[nH]c4=O)N3C2=O)cc1`, for which the TGI in the test with HOP-92 NSCLC, in the test on EKVX NSCLC, with SF-268 CNS, in the test with LOX IMVI melanoma, in the test on SK-OV-3 ovarian and in the test on RPMI-8226 leukemia was more than 100 µM in each case. Further, the TGI in the test with SK-MEL-2 melanoma, in the test with HCT-15 colon, in the test with UO-31 renal, in the test on SNB-75 CNS, in the test with KM12 colon and in the test on HT29 colon was more than 100 µM throughout. For the same compound, the TGI with SK-MEL-5 melanoma, in the test on SW-620 colon, in the test on MDA-MB-435, with NCI-H226 lung, in the test on TK-10 renal and in the test with NCI/ADR-RES ovarian was more than 100 µM in each case. The TGI in the test on ACHN renal and in the test with OVCAR-8 ovarian was more than 100 µM in each case.

As for `O=C(c1ccc2ccccc2c1)N(Cc1cccnc1)C(=S)N(Cc1cccnc1)C(=O)c1ccc2ccccc2c1`, the TGI in the test on HOP-92 NSCLC is 69.7 µM; in the test on EKVX NSCLC it was 77.1 µM; in the test on SF-268 CNS, 78.5 µM; with LOX IMVI melanoma it was 37 µM; in the test on SK-OV-3 ovarian it was more than 100 µM; with RPMI-8226 leukemia, more than 100 µM. The TGI was 75.7 µM in the test with SK-MEL-2 melanoma; more than 100 µM with HCT-15 colon; 97.8 µM in the test on UO-31 renal; 53.5 µM with SNB-75 CNS; 40 µM in the test on KM12 colon; 81.2 µM in the test on HT29 colon. The TGI was 41.3 µM in the test with SK-MEL-5 melanoma; more than 100 µM in the test with SW-620 colon; more than 100 µM with MDA-MB-435; more than 100 µM in the test on NCI-H226 lung; 78.9 µM with TK-10 renal; 88.7 µM in the test on NCI/ADR-RES ovarian. The TGI in the test on ACHN renal is more than 100 µM; in the test with OVCAR-8 ovarian it was 66.5 µM.

`CC(=O)Nc1sc([N+](=O)[O-])cc1S(=O)(=O)c1ccc(Cl)cc1`: the TGI with HOP-92 NSCLC is 12.7 µM; in the test with EKVX NSCLC, more than 100 µM; in the test on SF-268 CNS, more than 100 µM; with LOX IMVI melanoma, more than 100 µM; in the test on SK-OV-3 ovarian, 15.6 µM; with RPMI-8226 leukemia it was more than 100 µM. The TGI with SK-MEL-2 melanoma was 8.54 µM; in the test with HCT-15 colon it was more than 95 µM; in the test with UO-31 renal, 14.7 µM; in the test on SNB-75 CNS, 11.2 µM; in the test on KM12 colon it was 14.5 µM; with HT29 colon it was more than 52.8 µM. In addition, the TGI in the test on SK-MEL-5 melanoma was 1.95 µM; with SW-620 colon it was more than 100 µM; in the test with MDA-MB-435, more than 53.3 µM; with NCI-H226 lung, 21.9 µM; in the test on TK-10 renal, more than 100 µM; with NCI/ADR-RES ovarian, 64 µM. The TGI in the test with ACHN renal is 10.6 µM; in the test with OVCAR-8 ovarian it was more than 100 µM.

With `CN(Cc1cnc2nc(N)nc(N)c2n1)c1ccc(C(=O)NCS(=O)(=O)O)cc1`, the TGI in the test with HOP-92 NSCLC, with EKVX NSCLC, with SF-268 CNS, with LOX IMVI melanoma, with SK-OV-3 ovarian and in the test on RPMI-8226 leukemia was more than 100 µM each time. Moreover, the TGI in the test with SK-MEL-2 melanoma, with HCT-15 colon, in the test on UO-31 renal, with SNB-75 CNS, in the test with KM12 colon and in the test on HT29 colon was more than 100 µM in each case. Moreover, the TGI in the test with SK-MEL-5 melanoma, in the test with SW-620 colon, in the test on MDA-MB-435, in the test on NCI-H226 lung, with TK-10 renal and in the test with NCI/ADR-RES ovarian was more than 100 µM each time. For the same compound, the TGI in the test on ACHN renal and with OVCAR-8 ovarian was more than 100 µM each time.

On to `O=C(CCCN1CCC2(CC1)NC(=O)c1ccccc1O2)c1ccc(F)cc1`, for which the TGI in the test on HOP-92 NSCLC, with EKVX NSCLC, with SF-268 CNS, with LOX IMVI melanoma, with SK-OV-3 ovarian and with RPMI-8226 leukemia was more than 100 µM each time. In addition, the TGI in the test on SK-MEL-2 melanoma, in the test on HCT-15 colon, in the test with UO-31 renal, in the test on SNB-75 CNS, with KM12 colon and in the test on HT29 colon was more than 100 µM throughout. In addition, the TGI with SK-MEL-5 melanoma, with SW-620 colon, in the test with MDA-MB-435, in the test on NCI-H226 lung, in the test on TK-10 renal and in the test with NCI/ADR-RES ovarian was more than 100 µM in each case. The TGI with ACHN renal and in the test on OVCAR-8 ovarian was more than 100 µM each time.

For the compound `CC(=O)Nc1ccc(CNc2cc(=O)n(C)c(=O)[nH]2)cc1`, the TGI in the test on HOP-92 NSCLC, with EKVX NSCLC, with SF-268 CNS, in the test on LOX IMVI melanoma, in the test on SK-OV-3 ovarian and in the test with RPMI-8226 leukemia was more than 100 µM throughout. Further, the TGI with SK-MEL-2 melanoma, in the test on HCT-15 colon, in the test on UO-31 renal, in the test on SNB-75 CNS, with KM12 colon and in the test with HT29 colon was more than 100 µM in each case. For the same compound, the TGI in the test with SK-MEL-5 melanoma, in the test on SW-620 colon, in the test with MDA-MB-435, in the test on NCI-H226 lung, in the test on TK-10 renal and in the test with NCI/ADR-RES ovarian was more than 100 µM throughout. In addition, the TGI with ACHN renal and in the test with OVCAR-8 ovarian was more than 100 µM throughout.

As for `O=[N+]([O-])c1ccc2c(c1)Nc1c3ccccc3nc3cccc-2c13`, the TGI in the test on HOP-92 NSCLC is 18.8 µM; in the test on EKVX NSCLC it was 48.7 µM; in the test on SF-268 CNS it was 40.5 µM; in the test with LOX IMVI melanoma it was 6.67 µM; with SK-OV-3 ovarian it was 8.41 µM; in the test with RPMI-8226 leukemia, more than 39 µM. The TGI with SK-MEL-2 melanoma was 39.5 µM; in the test on HCT-15 colon it was 81.2 µM; in the test with UO-31 renal, 28.9 µM; in the test with SNB-75 CNS, 11.7 µM; with KM12 colon, more than 100 µM; with HT29 colon it was more than 51.6 µM. Further, the TGI in the test on SK-MEL-5 melanoma is 5.51 µM; in the test with SW-620 colon, 15.8 µM; in the test with MDA-MB-435, 36 µM; in the test with NCI-H226 lung, more than 93.6 µM; in the test on TK-10 renal, 17.3 µM; in the test on NCI/ADR-RES ovarian it was 17.1 µM. The TGI in the test on ACHN renal was more than 60.5 µM; in the test on OVCAR-8 ovarian it was 40.4 µM.
